Reference: patent US20060183696A1, “Use of immune cell specific conjugates for treatment of inflammatory diseases of gastrointestinal tract” (Pliva-Istrazivacki Institut d.o.o., priority 2004, published 2006)
Where two headings read alike, the source gives them in different places.

Key:
in vivo [1] = conditions: male, BALB/CJ, mouse
Experimental: (§1) For I.N. and P.O. administration the substance was dissolved in DMSO. 0.5% methyl cellulose was added up to 100% of the total volume. The solution was applied in a volume of 10 ml/kg b.w. (P.O.) and 10 ml/kg b.w. (I.N.). For I.V. administration the substance was dissolved in DMF. PBS was added up to 100% of the total volume. The solution was applied in a volume of 5 ml/kg b.w. (I.V.)
(§2) The experiment was carried out on approximately eight week old male BALB/CJ mice (IFFA CREDO, Lyon, France), weighing ˜25 g. Animals were weighed, marked and grouped a day before the beginning of the study. After weighing each mouse was given an earmark and placed into a cage (5 mice per cage). […]
(§3) The concentration of the administered compound in biological matrices are calculated by the peak area ratios of compound 1 to an internal standard of roxithromycin using calibration curves and quality control samples.
(§4) Non-compartmental analysis was used for pharmacokinetic analysis in plasma and tissue. The pharmacokinetic parameters were calculated based on average values at each time point using WinNonlin Professional Software, Version 4.1 (Pharsight).
(§5) The pharmacokinetic parameters were calculated as disclosed herein to obtain the bioavailability wherein F=(AUC p.o.(0−∞)/AUC i.v.(0−∞))/(Di.v./Dp.o.).

TNBS induced colitis = experiment: TNBS-induced inflammatory bowel disease (colitis) in rats; format: in vivo, rat
Experimental: Colitis is induced in male Wistar rats by intracolonic administration of 10-50 mg of TNBS in 0.25 ml of 50% ethanol. Two days prior to administration of TNBS animals are treated with various doses of sterolide (initially ranging from 0.5 to 10 mg/kg of the compound in 0.125% carboxymethyl cellulose in phosphate buffered saline and 1% DMSO) or vehicle control (0.125% carboxymethyl cellulose in phosphate buffered saline and 1% DMSO) or standard steroid such as for example budesonide (1 mg/kg) for 14 days after the TNBS is applied. Rats were sacrificed, blood samples werewere taken (at day 7 and 15 after application of TNBS) to obtain serum samples followed by macroscopic observation and histological evaluation to determine the degree of colonic inflammation. Macroscopic and histological evaluation of tissue damage was done blindly by pathologist. The criteria for assessing macroscopic damage and the numerical rating score are as follows: 0, no damage; 1, localized hyperemia and/or edema; 2, linear ulcer<half of the width of the colon; 3, linear ulcer>half of the width of the colon; 4, small circular ulcer (<1 cm); 5, circular ulcer between 1 and 2 cm; 6, circular ulcer>2 cm. Scores from individual animals were added together and divided by number of animals to get average […] damage. For histological evaluation of colonic injury, each colon is blindly scored according to the following criteria: A) Ulceration: 0, no ulcer, epithelization; 1, small ulcer<3 mm; 2, large ulcer>3 mm; B) Inflammation: 0, no inflammation; 1, mild; 2, moderate; 3, severe; C) Depth of lesion: 0, none; 1, submucosa; 2, muscularis propria; 3, serosa; D) Necrosis: 0, none; 1, mild; 2, severe; E) Granulomas: No, no granulomas; Yes, granulomas present. Maximum score, defined as a sum of all individual scores in this scoring system is 10+granulomas. In some experiments Lekotriene B4 (LTB4) and serum α1 acidic glycoprotein were also measured as an additional indicator of inflammatory activity. Likewise, in selected experiments full thickness specimens from inflamed tissue adjacent to the ulcerated area are excised for measurement of myeloperoxidase (MPO) activity.
Improvement in this experiment is defined by the lower average macroscopic damage and lower histological score, as well as lowering of LTBB4, serum α1 acidic glycoprotein and MPO activity in sterolide treated then in the group of […] (animals receiving vehicle alone).
FIG. 1A describes the macroscopic damage score of the colon in the rat model of TNBS induced colitis (Mann-Whitney Test). The macroscopic damage score of the colon is defined as 0—no damage; 1—localized hyperemia and/or edema; 2—linear ulcer<half of the width of the colon; 3—linear>half the width of the colon or small ulcer (<1 cm) 4—circular ulcer<1 cm; 5—circular between 1 and 2 cm; and 6—circular ulcer>2 cm. The compounds 1′, 2′ and 3′ as shown in the table below were compared against budesonide [a known drug useful for the treatment of Crohn's disease in humans] as a treatment control and just a vehicle as a no treatment control. The no treatment control gave a score of 4 while the treatment control, budesonide, at a dosage of 1 mg/kg gave a score of 2.
FIG. 1B describes effect of conjugates on histological damage score in TNBS induced colitis in rats (Mann-Whitney Test). The histological damage score is defined according to the following criteria: A) Ulceration: 0, no ulcer, epithelization; 1, small ulcer<3 mm; 2, large ulcer>3 mm; B) Inflammation: 0, no inflammation; 1, mild; 2, moderate; 3, severe; C) Depth of lesion: 0, none; 1, submucosa; 2, muscularis propria; 3, serosa; D) Necrosis: 0, none; 1, mild; 2, severe; E) Granulomas: No, no granulomas; Yes, granulomas present. Maximum score, defined as a sum of all individual scores in this scoring system is 10+granulomas. […]

[2] = Oral bioavailability in rats (p.o. vs i.v., HPLC/MS-MS); conditions: rat, in vivo
Experimental: (§6) Male Sprague-Dawley rats weighing approximately 200 g were used. After weighing, each rat was given an earmark and placed into a cage. The day before the beginning of the study, animals were randomly distributed into 5 groups with 5 rats/group and placed into solid bottom cages, on wood dust-free bedding (VRF-1 Rodent's diet, Altromin Gmbh). During the experiment, the rats were maintained on a 12-h light-dark cycle. The rats were weighed and fasted for 12 hours prior to p.o. administration.
(§7) Compound 5 was administered p.o. in 0.125% carboxymethyl cellulose suspension. The dissolved substance was administered oral at a dose of 30 mg/kg body weight (b.w.), using 2.5 mL syringe (BD) and metal gavage. The administered volume was 10 mL/kg b.w.
(§8) Plasma and blood samples were obtained at the following time points after administration: 15, 30, 60, 120, 240, 360 and 480 minutes.
(§9) Blood samples were collected by puncturing the lateral tail vein. Prior to each blood sampling, animals were maintained in warming cabinets at 37° C. for 15 minutes. At each sampling time-point 50 μL of blood were collected and added to an Eppendorf test tube (1.5 mL) containing 50 μL demi water. Blood was collected according the time points stated in the protocol. Specimens were stored at −20° C. until analysis.
(§10) The concentrations of a compound 5 in the biological matrices were determined by a high performance liquid chromatography method using an acetonitrile and water (acidified by 0.1% formic acid) gradient as the chromatographic medium with tandem mass spectrometry detection (HPLC/MS-MS) (Guidance for Industry, Bioanalytical Method Validation, U.S. Department of Health and Human Services, Food and Drug Administration, May 2001).
(§11) Biological samples were prepared by deproteinization with acetonitrile, containing an internal standard. After centrifugation and evaporation of the supernatant fraction, samples were reconstituted in acetonitrile:water with addition of 0.1% formic acid.
(§12) HPLC separation was performed on a reverse phase C18 analytical column (Phenomenex C18(2)m 50×2 mm (3 μm) No 182700-5) with a guard column, maintained at ambient temperature, using a gradient of water:acetonitrile [0 min-1 min 10% acetonitrile, 2.5-3.5 minutes 80% acetonitrile, 3.5-5.6 min 10% acetonitrile with addition of 0.1% formic acid at flow rate 0.3 ml/min
(§13) MS-MS detection was performed in multi-resolution mode (MRM).
(§14) The concentration of the administered compound in biological matrices are calculated by the peak area ratios of compound 5 to an internal standard of roxithromycin using calibration curves and quality control samples.
(§15) The pharmacokinetic parameters were calculated using the PK solutions 2.0 software (Summit Research Services, Pharmacokinetics and Metabolism Software).
(§16) The pharmacokinetic parameters were calculated as disclosed herein to obtain the bioavailability wherein F=(AUC p.o.(0−∞)/AUC i.v. (0−∞))/(Di.v./Dp.o.).

in vivo [3] = conditions: male, rat, po
Experimental: as §6, §7, §8, §9, §10, §11, §12, §13, §14, §15, §16

[4] = mouse, in vivo
Experimental: as §1, §2, §3, §4, §5

[5] = AUC of compounds tested in mice or rats; set-up: concentration or dose not given beside the values; conditions: in vivo, po
Experimental: The area under the curve (AUC) is calculated as: [formula] where n is the number of data points
AUC∞=AUC(0−t)+Cn/λz, where Cn is the last concentration and λz is the elimination rate constant (estimated from the later portion of the plasma/blood concentration vs. time profiles).

[6] = rat, in vivo; for Amounts detected in plasma and blood: po
Experimental: as §6, §7, §8, §9, §10, §11, §12, §13, §14, §15, §16

## CC[C@H]1OC(=O)[C@H](C)[C@@H](O[C@H]2C[C@@](C)(OC)[C@@H](O)[C@H](C)O2)[C@H](C)[C@@H](O[C@@H]2O[C@H](C)C[C@H](N(C)C)[C@H]2O)[C@](C)(O)C[C@@H](C)CN(CCCNC(=O)[C@@]2(O)[C@H](C)CC3C4CCC5=CC(=O)C=C[C@]5(C)[C@@]4(F)[C@@H](O)C[C@@]32C)[C@H](C)[C@@H](O)[C@]1(C)O (stereo partly shown) [2′]
In vivo [1]
  bioavailability: < 1%
TNBS induced colitis; FIG. 1A, 2 mg/kg
  efficacy on macroscopic damage score compared with budesonide (1 mg/kg): comparable or superior efficacy to that of the standard steroid budesonide
TNBS induced colitis; FIG. 1B, 2 mg/kg
  efficacy on histological damage score compared with budesonide (1 mg/kg): comparable or superior efficacy to that of the standard steroid budesonide

## CC[C@H]1OC(=O)[C@H](C)[C@@H](O[C@H]2C[C@@](C)(OC)[C@@H](O)[C@H](C)O2)[C@H](C)[C@@H](O[C@@H]2O[C@H](C)C[C@H](N(C)C)[C@H]2O)[C@](C)(O)C[C@@H](C)CN(CCCNC(=O)Cc2c(C)n(C(=O)c3ccc(Cl)cc3)c3ccc(OC)cc23)[C@H](C)[C@@H](O)[C@]1(C)O [3′]
[2]; male
  bioavailability: 3.7%
[2]
  AUC: 2580 ng·h/mL
  bioavailability: < 10%
TNBS induced colitis; FIG. 1A, 10 mg/kg
  efficacy on macroscopic damage score compared with budesonide (1 mg/kg): comparable or superior efficacy to that of the standard steroid budesonide
TNBS induced colitis; FIG. 1B, 10 mg/kg
  efficacy on histological damage score compared with budesonide (1 mg/kg): comparable or superior efficacy to that of the standard steroid budesonide

## CC[C@H]1OC(=O)[C@H](C)[C@@H](O[C@H]2C[C@@](C)(OC)[C@@H](O)[C@H](C)O2)[C@H](C)[C@@H](O[C@@H]2O[C@H](C)C[C@H](N(C)C)[C@H]2O)[C@](C)(O)C[C@@H](C)CN(CCCNC(=O)c2cccnc2Nc2cccc(C(F)(F)F)c2C)[C@H](C)[C@@H](O)[C@]1(C)O [4′]
[2]; male
  bioavailability: 6.9%
[2]
  AUC: 2180 ng·h/mL
  bioavailability: < 10%

## CC[C@H]1OC(=O)[C@H](C)[C@@H](O)[C@H](C)[C@@H](O[C@@H]2O[C@H](C)C[C@H](N(C)C)[C@H]2O)[C@](C)(O)C[C@@H](C)CN(CCCNC(=O)Cc2c(C)n(C(=O)c3ccc(Cl)cc3)c3ccc(OC)cc23)[C@H](C)[C@@H](O)[C@]1(C)O [9′]
[2]; male
  bioavailability: 2.5%
[2]
  AUC: 1130 ng·h/mL
  bioavailability: < 10%

## CC[C@H]1OC(=O)[C@H](C)[C@@H](OC2C[C@@](C)(OC)[C@@H](O)[C@H](C)O2)[C@H](C)C(O[C@@H]2O[C@H](C)C[C@H](N(C)C)[C@H]2O)[C@](C)(O)C[C@@H](C)CN(CCCNCCC(=O)O[C@]2(C(=O)OC)[C@H](C)CC3C4C[C@H](F)C5=CC(=O)C=C[C@]5(C)[C@@]4(F)[C@@H](O)C[C@@]32C)[C@H](C)[C@@H](O)[C@]1(C)O (stereo partly shown) [10′]
In vivo [3]
  bioavailability: < 1%

## CC[C@H]1OC(=O)[C@H](C)[C@@H](O[C@H]2C[C@@](C)(OC)[C@@H](O)[C@H](C)O2)[C@H](C)C(O[C@@H]2O[C@H](C)C[C@H](N(C)C)[C@H]2O)[C@](C)(O)C[C@@H](C)/C(=N\OCCCCCCNC(=O)CNS(=O)(=O)c2ccc(-n3nc(C(F)(F)F)cc3-c3ccc(C)cc3)cc2)[C@H](C)[C@@H](O)[C@]1(C)O (stereo partly shown) [11′]
[2]; male
  bioavailability: < 1%

## CCCC1O[C@@H]2C[C@H]3[C@@H]4CCC5=CC(=O)C=C[C@]5(C)[C@H]4[C@@H](O)C[C@]3(C)[C@]2(C(=O)CO)O1 (stereo partly shown) [Budesonide, budesonide, reference compound]
TNBS induced colitis; FIG. 1A, 1 mg/kg, score 0-6, no treatment control 4
  macroscopic damage score of the colon: 2
TNBS induced colitis; FIG. 1B, 1 mg/kg, maximum score 10, no treatment control 7,6
  histological damage score: 4,5

## CC[C@H]1OC(=O)[C@H](C)[C@@H](O)[C@H](C)[C@@H](O)[C@](C)(O)C[C@@H](C)CN(CCCNCCC(=O)O[C@]2(C(=O)OC)[C@H](C)CC3C4C[C@H](F)C5=CC(=O)C=C[C@]5(C)[C@@]4(F)[C@@H](O)C[C@@]32C)[C@H](C)[C@@H](O)[C@]1(C)O (stereo partly shown) [Compound 1]
[4]
  oral bioavailability: not measurable
[5]
  AUC: 70 ng·h/mL

## CC[C@H]1OC(=O)[C@H](C)[C@@H](O)[C@H](C)[C@@H](O)[C@](C)(O)C[C@@H](C)CN(CCCNC(=O)[C@H]2[C@H](C)CC3C4CCC5=CC(=O)C=C[C@]5(C)[C@@]4(F)[C@@H](O)C[C@@]32C)[C@H](C)[C@@H](O)[C@]1(C)O (stereo partly shown) [Compound 1′]
TNBS induced colitis; FIG. 1A, 2 mg/kg
  efficacy on macroscopic damage score compared with budesonide (1 mg/kg): comparable or superior efficacy to that of the standard steroid budesonide
TNBS induced colitis; FIG. 1B, 2 mg/kg
  efficacy on histological damage score compared with budesonide (1 mg/kg): comparable or superior efficacy to that of the standard steroid budesonide
TNBS induced colitis; FIG. 2, dosages ranging from 4 mg/kg to 0.5 mg/kg
  efficacy on macroscopic damage score compared with budesonide (1 mg/kg): comparable or superior efficacy to that of the standard steroid budesonide

## CC[C@H]1OC(=O)C(C)[C@@H](O[C@H]2C[C@@](C)(OC)[C@@H](O)[C@H](C)O2)[C@H](C)[C@@H](O[C@@H]2O[C@H](C)C[C@H](N(C)C)[C@H]2O)[C@](C)(O)C[C@@H](C)/C(=N\OCCCCCNC(=O)[C@@]2(O)[C@H](C)CC3C4CCC5=CC(=O)C=C[C@]5(C)[C@@]4(F)[C@@H](O)C[C@]32C)[C@H](C)[C@@H](O)[C@]1(C)O (stereo partly shown) [Compound 5]
[6]; 30 mg/kg
  oral bioavailability: not measurable
  Amounts detected in plasma and blood: below the limits of detection

## CC[C@H]1OC(=O)[C@H](C)C(OC2C[C@@](C)(OC)[C@@H](O)[C@H](C)O2)[C@H](C)[C@@H](O[C@@H]2O[C@H](C)C[C@H](N(C)CCCNC(=O)[C@]3(O)[C@H](C)CC4C5CCC6=CC(=O)C=C[C@]6(C)[C@@]5(F)[C@@H](O)C[C@@]43C)[C@H]2O)[C@](C)(O)C[C@H](C)CN(C)[C@H](C)[C@@H](O)[C@]1(C)O (stereo partly shown) [Compound 6]
[5]
  AUC: 400 ng·h/mL

## CC[C@H]1OC(=O)[C@H](C)[C@@H](O)[C@H](C)[C@@H](O)[C@](C)(O)C[C@@H](C)CN(CCCN(CC)CCC(=O)O[C@]2(C(=O)OC)[C@H](C)CC3C4C[C@H](F)C5=CC(=O)C=C[C@]5(C)[C@@]4(F)[C@@H](O)C[C@@]32C)[C@H](C)[C@@H](O)[C@]1(C)O (stereo partly shown) [Compound 8]
[5]
  AUC: 60 ng·h/mL

## CCCCN(CCCN1C[C@H](C)C[C@@](C)(O)[C@H](O)[C@@H](C)[C@H](O)[C@@H](C)C(=O)O[C@H](CC)[C@@](C)(O)[C@H](O)[C@H]1C)CCC(=O)O[C@]1(C(=O)OC)[C@H](C)CC2C3C[C@H](F)C4=CC(=O)C=C[C@]4(C)[C@@]3(F)[C@@H](O)C[C@@]21C (stereo partly shown) [Compound 9]
[5]
  AUC: 390 ng·h/mL

## CCCN(CCCN1C[C@H](C)C[C@@](C)(O)[C@H](O)[C@@H](C)[C@H](O)[C@@H](C)C(=O)O[C@H](CC)[C@@](C)(O)[C@H](O)[C@H]1C)CCC(=O)O[C@]1(C(=O)OC)[C@H](C)CC2C3C[C@H](F)C4=CC(=O)C=C[C@]4(C)[C@@]3(F)[C@@H](O)C[C@@]21C (stereo partly shown) [Compound 10]
[5]
  AUC: 60 ng·h/mL

## CC[C@H]1OC(=O)[C@H](C)[C@@H](O)[C@H](C)[C@@H](O)[C@](C)(O)C[C@@H](C)CN(CCCNC(=O)[C@H]2[C@H](C)CC3C4CCC5=CC(=O)C=C[C@]5(C)[C@@]4(F)[C@@H](O)C[C@@]32C)[C@H](C)[C@@H](O)[C@]1(C)O (stereo partly shown) [drawing 72]
[6]
  oral bioavailability: not measurable
  Amounts detected in plasma and blood: below the limits of detection
